# Earlier results as cited in US12144813B2, “PLK1 inhibitor in combination with anti-angiogenics for treating metastatic cancer” (CARDIFF ONCOLOGY, INC., priority 2022, dated 2024).
# Where two headings read alike, the source gives them in different places.
# Assays:
# [1] = biological target: PLK1 (Homo sapiens, UniProt P53350); details: panel of 296 kinases, including other PLK members
# [2] = system: cancer cell lines
# [3] = system: disseminated model of AML
# [4] = system: AML cell lines
# [5] = system: cell lines, both from solid as well as hematologic tumors; details: large number of cell lines, solid and hematologic tumors
# [6] = system: HT29 human colon adenocarcinoma xenografts; details: combination with irinotecan
# [7] = system: patients with advanced/metastatic solid tumors
# [8] = system: xenograft tumor; details: well tolerated doses in mice after oral administration
# [9] = system: patients with AML who were treatment naïve yet unsuitable for induction therapy; details: administered intravenously in combination with LDAC; phase II
# [10] = system: AML; details: combination with LDAC; phase III
# [11] = system: 2nd line patients, bev naïve or prior bev in 1st line; details: prior trials
# PLK1, sequence (P53350 whole entry): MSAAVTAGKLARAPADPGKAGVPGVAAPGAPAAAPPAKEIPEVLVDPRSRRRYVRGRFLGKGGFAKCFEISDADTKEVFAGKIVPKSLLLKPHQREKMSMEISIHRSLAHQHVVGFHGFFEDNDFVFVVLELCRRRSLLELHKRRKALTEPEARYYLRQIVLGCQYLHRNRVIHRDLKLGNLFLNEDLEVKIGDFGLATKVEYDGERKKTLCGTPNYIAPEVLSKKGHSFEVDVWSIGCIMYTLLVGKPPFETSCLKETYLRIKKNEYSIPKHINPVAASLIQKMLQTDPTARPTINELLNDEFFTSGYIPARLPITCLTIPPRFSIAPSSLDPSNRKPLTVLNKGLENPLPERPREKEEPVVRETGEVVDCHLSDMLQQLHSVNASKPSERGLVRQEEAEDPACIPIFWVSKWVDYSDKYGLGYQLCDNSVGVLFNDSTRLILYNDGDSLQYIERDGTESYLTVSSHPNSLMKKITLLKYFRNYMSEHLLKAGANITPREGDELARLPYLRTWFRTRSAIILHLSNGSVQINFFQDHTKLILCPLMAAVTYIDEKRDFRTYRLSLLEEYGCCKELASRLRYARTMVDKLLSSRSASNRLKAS
compound,measurement,setting,value
"CN1CCN(c2ccc(OC(F)(F)F)c(Nc3ncc4c(n3)-c3c(c(C(N)=O)nn3CCO)CC4)c2)CC1 [Onvansertib, 1-(2-hydroxyethyl)-8-{[5-(4-methylpiperazin-1-yl)-2-(trifluoromethoxy)phenyl]amino}-4,5-dihydro-1H-pyrazolo[4,3-h]quinazoline-3-carboxamide]",Specificity for PLK1,[1],high specificity
same,Cell-cycle effect,[2],mitotic cell-cycle arrest followed by apoptosis
same,Survival of animals,"[3]; disseminated model of AML, combination therapy with cytarabine",prolonged survival
same,Effect on cytarabine antitumor activity,"[3]; disseminated models of AML, with cytarabine",significantly increased
same,Inhibition of cell proliferation,[4],nanomolar concentrations
same,Potency in proliferation assays,[5],low nanomolar activity
same,Tumor regression compared to each agent alone,[6],enhanced tumor regression
same,Primary dose-limiting toxicities,"[7]; phase I, patients with advanced/metastatic solid tumors",neutropenia and thrombocytopenia
same,Recovery from hematologic toxicities,[7]; reversible toxicities,≤ 3 weeks
same,Xenograft tumor growth,[8],inhibits xenograft tumor growth
CC[C@@H]1C(=O)N(C)c2cnc(Nc3ccc(C(=O)N[C@H]4CC[C@H](N5CCN(CC6CC6)CC5)CC4)cc3OC)nc2N1C(C)C [volasertib (BI6727)],OS compared with LDAC alone,[9],significant increase in OS
same,Benefit of the combination,[10],no benefit
same,Risk of severe infections,[10],increased risk of severe infections
"Bevacizumab: anti-angiogenics / angiogenesis inhibitor, also referred to herein as bev",mOS,[11]; bev naïve patients,13.9 months
same,mPFS,[11]; bev naïve patients,6.9 months
same,mOS,[11]; patients with prior bev,12.5 months
same,mPFS,[11]; patients with prior bev,6.7 months
